Laboratory results taken from patent US9464326B2, “Total and phosphorylated IL-1 receptor-associated kinase-1 and IL-1 receptor-associated kinase-4 as a biomarker for cancer progression and chemotherapy resistance” (University of Maryland, Baltimore, priority 2012, dated 2016).

How the values were obtained:
patient T-ALL cells = assay: Western blot of patient T-ALL samples from treated NSG mice; format: in vivo
Protocol: CCRF-CEM (2×10^6) cells were injected intravenously (i.v.) into female NOD.Cg-Prkdc^scid Il2rg^tm1WJl/SzJ IL2RG (NSG) mice (Jackson Laboratories, Bar Harbor, Me.). […] In some experiments mice were injected i.v. with TLR1-TLR2 ligand (2.5 μg) two days after injecting cells. In other experiments mice were injected intraperitoneally (i.p.) with IRAK-1,-4 inhibitor (10 mg/kg) 3, 6, and 9 days (CCRF-CEM cells) or 7, 10, and 13 days (patient T-ALL cells) after detecting CD7^+ T-ALL cells in circulation. The numbers of T-ALL cells in the bone marrow, spleen, liver, and in circulation were determined by staining cells with anti-human CD7 and/or CD5. To compare T-ALL numbers between groups, 10 μl of calibration microbeads (BD Pharmingen) were added to 50 μl of blood (or marrow or spleen suspensions) and the flow cytometry instrument gates were set to count a constant number of beads.
The levels of p-mTOR and p-p65 were also examined in patient T-ALL samples obtained from mice treated with IRAK-1,-4 inhibitor or DMSO.

CCRF-CEM cells = assay: Cell number and apoptosis assays; format: cell-based, human; conditions: 5 uM, 24-96 hours
Protocol: (§1) TLR ligands were diluted 2-fold. Cell lines (25-40×10^3/well) were cultured for 54 hours, whereas fresh patient-derived T-ALL cells (200×10^3/well) were cultured for 30 hours prior to adding [^3H]-thymidine for 18 hours. After this time point, cells were harvested with a Packard Filter-Mate-96 cell harvester (Perkin Elmer, Waltham, Mass., USA) and counted on Packard Top Count-NXT (Perkin Elmer, Waltham, Mass., USA). Results were expressed as average counts per minute (cpm). In some experiments CCRF-CEM cells were pre-treated with TLR1-TLR2 ligand (Pam3CysK4; 2.5 ug/ml) for 48 hrs, washed, and then cultured in the presence of varying concentrations of FBS. Forty-eight hours later, proliferation (±SD) was determined by ^3H-thymidine incorporation. Alternatively, apoptosis was measured by flow cytometry after staining cells with Annexin-V (BD Pharmingen, San Diego, Calif., USA) and propidium iodide (Sigma). Cell number was counted under microscopy by staining cells with trypan blue.
CCRF-CEM cells were treated with IRAK-1,-4 inhibitor for 24, 48, 72, and 96 hours.
The T-ALL cell line CCRF-CEM was cultured in the presence of 0, 1.2, 5, 10, and 20 μM IRAK-1,-4 inhibitor. (FIG. 23). To each concentration of IRAK-1,-4 inhibitor titrating doses of ABT-737 (1000→15 nM) vincristine, VS (10→0.1 nM), and paclitaxol, PAC (100→1.5 nM). […] Apoptosis was measure 48 hours later by staining cells with 7AAD and analyzed by flow cytometry.

CEM-C1 = assay: Proliferation (3H-thymidine) of CEM-C1; format: cell-based, human
Text: CCRF-CEM, CEM/C1, CEM/C2, CEM-C7, Jurkat, Loucy, Molt-4, HSB-2, SUP-T1, Hut 78, HH, Hut 102, MO, and H9 T-leukemia and T-lymphoma cell lines were purchased from the American Type Culture Collection (Manassas, Va., USA). All of the cell lines were initially expanded and cryopreserved within one month of receipt. Cells were typically used for 6 months at which time a fresh vial of cryopreserved cells was used. Total T cells from healthy donors were isolated via negative selection followed by positive selection using a CD3+ selection kit (Invitrogen, Carlsbad, Calif.). T cells were isolated from patients with T-ALL bone marrow or peripheral blood samples containing more than 70% leukemia cells using a CD2+ isolation kit (STEMCELL Technologies, Vancouver, Canada). All tissues were collected under institutional IRB-approved protocols and all participants gave written informed assent/consent. For in vitro experiments, T-ALL cells were cultured in AIM-V medium supplemented with 20% human AB serum in the presence of recombinant human stem cell factor (50 ng/mL; Amgen, Thousand Oaks, Calif.), insulin (20 nM; Sigma-Aldrich, St Louis, Mo., USA) and IL-7 (50 ng/mL; R&D Systems, Minneapolis, Minn., USA). In other experiments, protein lysate was collected using the Full Moon Biosystems (Sunnyvale, Calif., USA) buffer prior to protein examination by western blot or protein array.
as §1, with “Cells were cultured in a 96-well plate (Corning Costar, Corning, N.Y., USA) with various concentrations of TLR ligands 1-9, starting at 10 μg/ml, in a final volume of 200 ul. TLR ligands” for “TLR ligands”, “trypan blue. […]” for “trypan blue.”

Row | Compound | p-mTOR levels (patient T-ALL cells; patient sample #810 (barely detectable p-IRAK-4), treated in vivo) | reduction of p-p65 levels (patient T-ALL cells; patient samples #825 and #828 from treated NSG mice) | number of viable cells (CCRF-CEM cells; FIG. 14B) | apoptosis (sub-G1 phase, Annexin V) (CCRF-CEM cells; FIG. 14D) | Proliferative effects of TLR ligands (CEM-C1; 3H-thymidine uptake, 72 h) | TLR ligand concentration in parentheses below the symbol (CEM-C1; no unit in table (μg/ml))
1 | O=C(Nc1nc2ccccc2n1CCN1CCOCC1)c1cccc([N+](=O)[O-])c1 [IRAK-1,-4 inhibitor] | did not show changes | two-fold | maintained a relatively constant number of viable cells | did not induce apoptosis | – | –
2 | tripalmitoyl-S-(bis(palmitoyloxy)propyl)-Cys-Ser-(Lys)3-Lys [Pam3Cysk4] | – | – | – | – | + (enhanced proliferation by 25% or greater) | (2.5)
